Four compounds from US20260007133A1, “HERBICIDAL COMPOSITION COMPRISING AZINE COMPOUNDS” (BASF SE, priority 2022, published 2026) can be followed below.

Structures are written as SMILES. Where two headings read alike, the source gives them in different places.

Holding throughout (type): in vivo
Assay [1] deals with Abutilon theophrasti. The assay can be described thus: Greenhouse pre-emergence (PRE) herbicidal test on ABUTH. Conditions: Abutilon theophrasti, pre-emergence, 480 h. In outline: (§1)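 Seeds were sown per species in pots of loamy sand with about 3.0% humus, treated pre-emergence, watered and hooded until rooted. Plants grew at 10-25° C or 20-35° C depending on species. Damage was scored 0-100 (100 = no emergence or above-ground parts destroyed) at 20 DAT.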

The subject of the next assay is Alopecurus myosuroides. In words: Greenhouse pre-emergence (PRE) herbicidal test on ALOMY. The conditions noted are these: Alopecurus myosuroides, pre-emergence, 480 h. In outline:
as §1

Another assay relates to Ambrosia artemisiifolia. The assay can be described thus: Greenhouse pre-emergence (PRE) herbicidal test on AMBEL.
The test system of a further assay is Commelina benghalensis. In words: Greenhouse pre-emergence (PRE) herbicidal test on COMBE. The conditions noted are these: Commelina benghalensis, pre-emergence, 480 h, read-out: solo application % activity. In outline:
as §1

The test system of assay [2] is Euphorbia heterophylla. The assay can be described thus: Greenhouse pre-emergence (PRE) herbicidal test on EPHHL. Conditions: Euphorbia heterophylla, pre-emergence, 480 h. In outline:
as §1

The next assay relates to Setaria viridis. The assay can be described thus: Greenhouse pre-emergence (PRE) herbicidal test on SETVI. From the text: (§2) The culture containers used were plastic pots containing loamy sand with approximately 3.0% of humus as substrate. The seeds of the test plants were sown separately for each species.
For the pre-emergence treatment, the active compounds, suspended or emulsified in water, were applied directly after sowing by means of finely distributing nozzles. The containers were irrigated gently to promote germination and growth and subsequently covered with transparent plastic hoods until the plants had rooted. This cover caused uniform germination of the test plants unless this was adversely affected by the active compounds.
(§3) Depending on the species, the plants were kept at 10-25° C. and 20-35° C., respectively.
(§4) The test period extended over 2 to 4 weeks. During this time, the plants were tended and their response to the individual treatments was evaluated.
(§5) Evaluation was carried out using a scale from 0 to 100. 100 means no emergence of the plants, or complete destruction of at least the above-ground parts, and 0 means no damage or normal course of growth. A good herbicidal activity is given at values of at least 70, and very good herbicidal activity is given at values of at least 85.
(§6) If not stated differently, the respective components A and B, and if appropriate, C were formulated as a 5% by weight strength emulsion concentrate and, with addition of the amount of solvent system, introduced into the spray liquor used for applying the active compound.
(§7) As indicated application was either post emergent (POST) at the respective growth stage (GS) of the weed (BBCH code), or pre-emergent (PRE). […]

Assay [3] deals with Abutilon theophrasti. The assay can be described thus: Greenhouse post-emergence (POST) herbicidal test on ABUTH. Conditions: Abutilon theophrasti, post-emergence, 480 h. In outline:
(§8)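 Visual damage rating on a 0–100 scale, 0 meaning normal growth and 100 complete kill of above-ground parts, taken 20 days after treatment. Spray applied post-emergence to plants 3–15 cm tall in loamy sand with approximately 3.0% humus.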

The next assay has as its system Digitaria sanguinalis. In words: Greenhouse post-emergence (POST) herbicidal test on DIGSA. The conditions noted are these: Digitaria sanguinalis, post-emergence, 480 h, read-out: solo application % activity. In outline:
as §8

Assay [4] has as its system Echinochloa crus-galli. In words: Greenhouse post-emergence (POST) herbicidal test on ECHCG. The conditions noted are these: Echinochloa crus-galli, post-emergence, 480 h, read-out: solo application % activity. In outline: as §8
The subject of assay [5] is Euphorbia heterophylla. In words: Greenhouse post-emergence (POST) herbicidal test on EPHHL. Conditions: Euphorbia heterophylla, post-emergence, 480 h, read-out: solo application % activity. As to the method: as §2
(§9) For the post-emergence treatment, the test plants were grown to a plant height of from 3 to 15 cm, depending on the plant habit, and only then treated with the active compounds which had been suspended or emulsified in water. To this end, the test plants were either sown directly, and grown in the same containers, or they were first grown separately as seedlings and transplanted into the test containers a few days prior to treatment.
as §3, §4, §5, §6, §7

Another assay concerns Ipomoea hederacea. In words: Greenhouse post-emergence (POST) herbicidal test on IPOHE. On the procedure:
as §2, §9, §3, §4, §5, §6
As indicated application was either post emergent (POST) at the respective growth stage (GS) of the weed (BBCH code), or pre-emergent (PRE).
Assessment was 20 days after treatment (DAT).

The test system of a further assay is Lolium multiflorum. The assay can be described thus: Greenhouse pre-emergence (PRE) herbicidal test on LOLMU. The method in brief: as §1
Another assay relates to Amaranthus retroflexus. In words: Greenhouse post-emergence (POST) herbicidal test on AMARE. The conditions noted are these: Amaranthus retroflexus, post-emergence, 480 h, read-out: solo application % activity. As to the method:
as §2, §9, §3, §4, §5, §6, §7

The test system of a further assay is Geranium pusillum. In words: Greenhouse post-emergence (POST) herbicidal test on GERPU. Conditions: Geranium pusillum, post-emergence, 480 h, read-out: solo application % activity. The method in brief: as §8
Assay [6] concerns Echinochloa crus-galli. In words: Greenhouse pre-emergence (PRE) herbicidal test on ECHCG. The conditions noted are these: PRE, ECHCG, use rate 6.25 gai/ha, 20 DAT. On the procedure:
as §2
The containers were irrigated gently to promote germination and growth and subsequently covered with transparent plastic hoods until the plants had rooted.
as §3, §4, §5, §7

Setting [7] is: read-out: solo application % activity.
Setting [8] is: Ambrosia artemisiifolia, pre-emergence, 480 h, read-out: solo application % activity.

Consider `CC(C)N1C(=O)c2ccccc2NS1(=O)=O` [Bentazone], for which the inhibition at 240 g/ha in the assay on Abutilon theophrasti [1] (PRE, ABUTH, use rate 240 gai/ha, 20 DAT, read-out: solo application % activity) was determined as 30%; in the assay with Alopecurus myosuroides (PRE, ALOMY, use rate 240 gai/ha, 20 DAT, read-out: solo application % activity) it was 15%; with Ambrosia artemisiifolia (Ambrosia artemisiifolia, pre-emergence, 480 h, PRE, AMBEL, use rate 240 gai/ha, 20 DAT, read-out: solo application % activity), 0%; with Commelina benghalensis (PRE, COMBE, use rate 240 gai/ha, 20 DAT), 0%; in the assay on Euphorbia heterophylla [2] (PRE, EPHHL, use rate 240 gai/ha, 20 DAT, read-out: solo application % activity), 5%; with Setaria viridis (Setaria viridis, pre-emergence, 480 h, PRE, SETVI, use rate 240 gai/ha, 20 DAT, read-out: solo application % activity), 10%. For the same compound, the inhibition at 240 g/ha in the assay with Digitaria sanguinalis (POST, DIGSA, use rate 240 gai/ha, 20 DAT) is 0%; in the assay on Echinochloa crus-galli [4] (POST, ECHCG, use rate 240 gai/ha, 20 DAT), 10%; with Euphorbia heterophylla [5] (POST, EPHHL, use rate 240 gai/ha, 20 DAT), 0%; in the assay on Ipomoea hederacea (Ipomoea hederacea, post-emergence, 480 h, POST, IPOHE, use rate 240 gai/ha, 20 DAT, read-out: solo application % activity) it was 0%. The inhibition at 480 g/ha is 0% in the assay with Ambrosia artemisiifolia (Ambrosia artemisiifolia, pre-emergence, 480 h, PRE, AMBEL, use rate 480 gai/ha, 20 DAT, read-out: solo application % activity); 5% in the assay with Euphorbia heterophylla [2] (PRE, EPHHL, use rate 480 gai/ha, 20 DAT, read-out: solo application % activity); 0% with Setaria viridis (Setaria viridis, pre-emergence, 480 h, PRE, SETVI, use rate 480 gai/ha, 20 DAT, read-out: solo application % activity); 10% in the assay on Abutilon theophrasti [3] (POST, ABUTH, use rate 480 gai/ha, 20 DAT, read-out: solo application % activity); 30% in the assay with Echinochloa crus-galli [4] (POST, ECHCG, use rate 480 gai/ha, 20 DAT); 0% in the assay with Euphorbia heterophylla [5] (POST, EPHHL, use rate 480 gai/ha, 20 DAT).
In the case of `CCSC(C)CC1CC(=O)C(/C(CC)=N/OC/C=C/Cl)=C(O)C1` (centres unmarked) [Clethodim, clethodim], the inhibition at 5 g/ha is 0% in the assay on Abutilon theophrasti [1] (setting [7]); 60% in the assay with Alopecurus myosuroides (setting [7]); 0% with Ambrosia artemisiifolia (setting [8]); 0% in the assay on Commelina benghalensis; 0% in the assay on Euphorbia heterophylla [2] (setting [7]); 60% in the assay with Lolium multiflorum (Lolium multiflorum, pre-emergence, 480 h, read-out: solo application % activity). Further, the inhibition at 5 g/ha in the assay with Setaria viridis (Setaria viridis, pre-emergence, 480 h, read-out: solo application % activity) turned out to be 25%; with Amaranthus retroflexus, 0%; in the assay with Echinochloa crus-galli [4], 80%; with Euphorbia heterophylla [5] it was 0%; in the assay on Geranium pusillum, 0%; in the assay on Ipomoea hederacea (Ipomoea hederacea, post-emergence, 480 h, read-out: solo application % activity) it was 0%. The inhibition at 10 g/ha with Alopecurus myosuroides (setting [7]) worked out at 75%; in the assay on Ambrosia artemisiifolia (setting [8]), 0%; in the assay with Commelina benghalensis, 0%; in the assay on Euphorbia heterophylla [2] (setting [7]) it was 0%; in the assay with Abutilon theophrasti [3] (setting [7]), 0%; in the assay with Amaranthus retroflexus, 0%. Moreover, the inhibition at 10 g/ha in the assay on Digitaria sanguinalis worked out at 80%; with Euphorbia heterophylla [5] it was 0%; in the assay on Geranium pusillum it was 0%.
Broadly, the pest or weed control is how far the test organism was held down. Higher therefore signals strong suppression. Regarding `CCCC(=NOCC)C1=C(O)CC(C2CCCSC2)CC1=O` (centres unmarked) [Cycloxydim, cycloxydim], the pest or weed control at 5 g/ha is 0% in the assay on Abutilon theophrasti [1] (PRE, 5 gai/ha, 20 DAT); 5% in the assay with Euphorbia heterophylla [2] (PRE, 5 gai/ha, 20 DAT); 0% in the assay with Abutilon theophrasti [3] (POST, 5 gai/ha, 20 DAT); 0% in the assay on Ipomoea hederacea (Ipomoea hederacea, post-emergence, 480 h, POST, 5 gai/ha, 20 DAT). Besides, the inhibition at 5 g/ha came out at 0% with Abutilon theophrasti [1] (PRE, ABUTH, use rate 5 gai/ha, 20 DAT, read-out: solo application % activity); 15% in the assay with Alopecurus myosuroides (PRE, ALOMY, use rate 5 gai/ha, 20 DAT, read-out: solo application % activity); 0% in the assay with Ambrosia artemisiifolia (Ambrosia artemisiifolia, pre-emergence, 480 h, PRE, AMBEL, use rate 5 gai/ha, 20 DAT, read-out: solo application % activity); 5% with Euphorbia heterophylla [2] (PRE, EPHHL, use rate 5 gai/ha, 20 DAT, read-out: solo application % activity); 0% in the assay with Abutilon theophrasti [3] (POST, ABUTH, use rate 5 gai/ha, 20 DAT, read-out: solo application % activity); 0% in the assay on Amaranthus retroflexus (POST, AMARE, use rate 5 gai/ha, 20 DAT). Also, the inhibition at 5 g/ha in the assay with Geranium pusillum (POST, GERPU, use rate 5 gai/ha, 20 DAT) was found to be 5%; in the assay with Ipomoea hederacea (Ipomoea hederacea, post-emergence, 480 h, POST, IPOHE, use rate 5 gai/ha, 20 DAT, read-out: solo application % activity) it was 0%. In the assay with Alopecurus myosuroides (PRE, 20 gai/ha, 20 DAT), the pest or weed control at 20 g/ha was 60%. The inhibition at 20 g/ha in the assay with Alopecurus myosuroides (PRE, ALOMY, use rate 20 gai/ha, 20 DAT, read-out: solo application % activity) amounted to 60%; with Ambrosia artemisiifolia (Ambrosia artemisiifolia, pre-emergence, 480 h, PRE, AMBEL, use rate 20 gai/ha, 20 DAT, read-out: solo application % activity), 0%; in the assay with Euphorbia heterophylla [2] (PRE, EPHHL, use rate 20 gai/ha, 20 DAT, read-out: solo application % activity), 10%; with Abutilon theophrasti [3] (POST, ABUTH, use rate 20 gai/ha, 20 DAT, read-out: solo application % activity) it was 0%; with Euphorbia heterophylla [5] (POST, EPHHL, use rate 20 gai/ha, 20 DAT), 0%; with Ipomoea hederacea (Ipomoea hederacea, post-emergence, 480 h, POST, IPOHE, use rate 20 gai/ha, 20 DAT, read-out: solo application % activity) it was 0%.
For the compound `Cc1c(C(=O)c2cnn(C)c2O)ccc(S(C)(=O)=O)c1C1=NOCC1` [Topramezone, topramezone], the “% activity” value with Ambrosia artemisiifolia (PRE, AMBEL, use rate 6.25 gai/ha, 20 DAT) was determined as 0%; with Echinochloa crus-galli [6] it was 10%; with Lolium multiflorum (PRE, LOLMU, use rate 3.125 gai/ha, 20 DAT), 0%; in the assay with Setaria viridis (PRE, SETVI, use rate 3.125 gai/ha, 20 DAT) it was 0%; in the assay on Ipomoea hederacea (POST, IPOHE, use rate 3.125 gai/ha, 20 DAT) it was 15%; in the assay with Ipomoea hederacea (POST, IPOHE, use rate 6.25 gai/ha, 20 DAT), 35%.
